The target of one data set is Galectin-3 (Homo sapiens, UniProt P17931). Conditions: relative affinity, lactose on galectin-3 given as 1; cited from earlier work.
The test system of data set [1] is Alva-41 prostate carcinoma cells. Description: In vitro growth inhibition (cytotoxicity) by cisplatin nanoparticles. The note with it: at doses greater than 60 µg/ml. The data set is classed as cell-based, human. The procedure:
FIG. 3 is a graph showing the in vitro cytotoxicity of nanoparticles comprising cisplatin and various cell recognition components for Alva-41, human tumor cells derived from a prostate carcinoma metastasis; and
Cisplatin was nanoencapsulated into the various candidate tumor-binding agents as described previously and nanoparticles were compared for growth inhibition in a metastatic variant of Alva-41 prostate carcinoma cells and Ca-9-22. Formulas were tested in duplicate in two separate experiments. Results are illustrated for the prostate cell line in FIG. 3. Referring to FIG. 3, PEX-MMP-l/Cisplatin refers to s50 nanoparticles comprising cisplatin and the Recombinant Pex binding domain of membrane-associated Matrix Metalloproteinase-1 (see Bello et. al, Cancer Research (2001) 61: 8730-36); Tenascin/Cisplatin refers to s50 nanoparticles having tenascin and cisplatin, FN-PHSCN/Cisplatin refers to nanoparticles comprising the FN-PHSCN fragment and cisplatin, galectin-3/cisplatin refers to s50 nanoparticles comprising recombinant N-terminally truncated galectin-3 and cisplatin, hyaluronan/cisplatin refers to s50 nanoparticles comprising hyaluronan and cisplatin, and naked cisplatin refers to the addition of free cisplatin to the cell medium. In these experiments cells were plated at 5,000 per well and followed for 72 hours. […]

The target of a further data set is T1, Galectin-3C (Homo sapiens, UniProt P17931).
T1 construct: The digestion produced a 143 amino acid residue polypeptide beginning with Gly-108
Conditions: relative affinity, same scale as galectin-3 column; cited from earlier work.

In data set [2] the test system is orthotopically implanted tumors derived from breast cancer cell line MDA-MB435. Description: Orthotopic mouse model of human breast cancer. It is filed as in vivo, nude mice. The procedure: The safety, plasma half-life, and efficacy of galectin-3C in an orthotopic mouse model of human breast cancer was evaluated. A recent feasibility study of the anticancer activity of recombinant human galectin-3 N-terminally truncated by exhaustive digestion with Clostridium histiolyticum collagenase type VII (Sigma; St. Louis, Mo.), (36, 75) in an orthotopic mouse model of metastatic breast cancer (22) produced promising results. The digestion produced a 143 amino acid residue polypeptide beginning with Gly-108. In treated animals the number of primary tumors that metastasized was less than controls by 3-fold (P=0.031), and the mean primary tumor volume of the treated animals was 61% less than the controls (P=0.009). The results provide compelling evidence that treatment with an N-terminally truncated form of galectin-3 could useful in treatment and prevention of cancer, especially metastatic cancer.
One example of the use in vivo of N-terminally truncated galectin-3 is as a potential therapeutic agent for breast cancer. It was determined that therapy with an N-terminally truncated form of galectin-3 is efficacious for inhibition of metastases. To this end, recombinant galectin-3 was produced and the N-terminally truncated galectin-3 was derived by collagenase enzyme digestion and affinity chromatography. Injected N-terminally truncated galectin-3 was detected by metabolic labeling with ^35S methionine prior to collagenase cleavage. […] Mice bearing orthotopically implanted tumors derived from breast cancer cell line MDA-MB435 were treated intramuscularly twice daily for 90 days with N-terminally truncated galectin-3 or a vehicle control. […] In a recent study at the end of the treatment period, the number of treated animals with primary tumors that metastasized was less than controls by 3-fold (P=0.031), and the mean primary tumor volume of the treated animals was 61% less than the controls (P=0.009). The results provide compelling evidence that treatment with an N-terminally truncated form of galectin-3 could useful in treatment and prevention of cancer, especially metastatic cancer. The truncated form of galectin-3 was efficacious in reducing metastases, and the tumor volumes and weights of primary tumors.

On the set-up of data set [3]: species or system nude mice. The note with it: mouse, in vivo, im.
Data set [4] can be described thus: Maximum tolerated dose in nude mice. The data set is classed as in vivo. Conditions: without overt adverse effects.
In data set [5] the test system is dog-kidney epithelial cell line MDCK II (Madin-Darby Canine Kidney). The note with it: lactose-inhibitable, cited from earlier work.
The mark [6] stands for this setting: intramuscularly twice daily for 90 days.

Marks after values point to notes of the source that are not given here. Where only a bound is given, the exact number is not on record here.

Sequence of Galectin-3 (P17931 whole entry): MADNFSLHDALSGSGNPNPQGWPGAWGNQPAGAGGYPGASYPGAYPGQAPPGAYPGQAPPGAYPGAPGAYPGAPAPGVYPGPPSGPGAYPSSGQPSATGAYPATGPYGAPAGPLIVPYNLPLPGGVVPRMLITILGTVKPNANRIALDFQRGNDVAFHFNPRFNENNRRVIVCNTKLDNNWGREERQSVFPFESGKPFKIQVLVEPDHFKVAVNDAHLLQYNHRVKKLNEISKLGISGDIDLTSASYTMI
T1 sequence (P17931 108-250): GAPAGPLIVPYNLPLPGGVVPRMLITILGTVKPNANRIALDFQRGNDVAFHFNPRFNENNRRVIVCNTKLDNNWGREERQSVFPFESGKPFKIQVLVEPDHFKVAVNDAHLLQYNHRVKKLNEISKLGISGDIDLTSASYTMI

`CO[C@H]1O[C@H](CO)[C@H](O)[C@H](O[C@H]2O[C@H](CO)[C@H](O)[C@H](O)[C@H]2O)[C@H]1O` [Galα1→3GalαOme]: the “Relative Carbohydrate Affinities, Galectin-3” value on Galectin-3 is 0.2.

In the case of `N.N.[Cl][Pt][Cl]` [free cisplatin, cisplatin], the “activity compared to the other nanocapsule formulations” value in data set [1] is “greatest activity”.

With (LacNAc)2, on Galectin-3C, the “Relative Carbohydrate Affinities, Galectin-3C” value is 54. Also, the “Relative Carbohydrate Affinities, Galectin-3” value at Galectin-3 is reported as 20*.

Consider (LacNAc)5, for which the “Relative Carbohydrate Affinities, Galectin-3C” value on Galectin-3C is reported as 60.5. On Galectin-3, the “Relative Carbohydrate Affinities, Galectin-3” value was 137.

As to Galβ1→3GlcNAc, the “Relative Carbohydrate Affinities, Galectin-3” value at Galectin-3 is listed as 6.3.

As to “Galβ1→4(Fucα1→3)GlcNAc [Galβ1→4(Fucα1→3)GlcNAc (LeX)]”, the “Relative Carbohydrate Affinities, Galectin-3” value at Galectin-3 was under 0.02.

Take Galβ1→4GlcNAc [Galβ1→4GlcNAc (LacNAc)]: at Galectin-3, the “Relative Carbohydrate Affinities, Galectin-3” value is reported as 11.3.

On to “N-terminally truncated galectin-3: recombinant human galectin-3 truncated by collagenase digestion; 143 amino acid polypeptide beginning with Gly-108 (SEQ ID NO. 1)”, for which, in data set [2] (end of treatment period, P=0.009), the “mean primary tumor volume less than the controls” value was 61%. In data set [2] (end of treatment period, P=0.031), the “number of treated animals with primary tumors that metastasized, less than controls” value was 3 fold. For the same compound, in data set [2] (setting [6]), the “mean tumor volumes compared with control mice” value is “statistically significantly less”, the “mean tumor weights compared with control mice” value is on record as “statistically significantly less” and the “mice with lymph node metastases compared with control group” value is “fewer numbers of mice exhibited lymph node metastases”. This compound yielded a pharmacokinetic elimination half-life in data set [3] of 4.56 h. Also, the maximum tolerated dose entry in data set [4] is “greater than 125 mg/kg”.

Consider “galectin-3: intact wild-type galectin-3, chimera type β-galactoside binding lectin (SEQ ID NO. 3)”, for which the “apically bound radiolabeled galectin-3 endocytosed” value in data set [5] (Transwell chambers) is reported as “more than 90%”. For the same compound, the galectin-3 transcytosed in data set [5] (after 120 min) is 20%.
